# Results: ChEMBL document CHEMBL3046368, “Synthesis of benzothiazole derivatives and their biological evaluation as anticancer agents” (2012)
# Calls of active or inactive are those of the source. The rule behind the calls is not given here.
# Legend:
# [1] = system: SK-OV-3; experiment: Cytotoxicity against Homo sapiens (human) SKOV3 cells after 48 hr by SRB assay; format: functional; conditions: SK-OV-3, 48 h
# [2] = system: TK-10; experiment: Cytotoxicity against Homo sapiens (human) TK10 cells after 48 hr by SRB assay; format: functional; conditions: TK-10, 48 h
# [3] = system: BT-549; experiment: Cytotoxicity against Homo sapiens (human) BT549 cells after 48 hr by SRB assay; format: functional; conditions: BT-549, 48 h
# [4] = Cytotoxicity against Homo sapiens (human) melanoma cells assessed as cell growth at 10^-5 M after 48 hr by SRB assay relative to control; format: functional; conditions: read-out: Activity
# [5] = system: OVCAR-4; experiment: Cytotoxicity against Homo sapiens (human) OVCAR4 cells after 48 hr by SRB assay; format: functional; conditions: OVCAR-4, 48 h
# [6] = system: Hs-578T; experiment: Cytotoxicity against Homo sapiens (human) Hs578T cells after 48 hr by SRB assay; format: functional
# [7] = system: MDA-MB-468; experiment: Cytotoxicity against Homo sapiens (human) MDA-MB-468 cells after 48 hr by SRB assay; format: functional; conditions: MDA-MB-468, 48 h
# [8] = system: MCF7; experiment: Cytotoxicity against Homo sapiens (human) MCF7 cells after 48 hr by SRB assay; format: functional; conditions: MCF7, 48 h
# [9] = system: M14; experiment: Cytotoxicity against Homo sapiens (human) M14 cells after 48 hr by SRB assay; format: functional; conditions: M14, 48 h
# [10] = system: HCT-15; experiment: Cytotoxicity against Homo sapiens (human) HCT15 cells after 48 hr by SRB assay; format: functional; conditions: HCT-15, 48 h
# [11] = Cytotoxicity against Homo sapiens (human) NSCLC cells assessed as cell growth at 10^-5 M after 48 hr by SRB assay relative to control; format: functional; conditions: read-out: Activity
# [12] = Cytotoxicity against Homo sapiens (human) ovarian cancer cells assessed as cell growth at 10^-5 M after 48 hr by SRB assay relative to control; format: functional; conditions: Cancer cell lines, read-out: Activity
# [13] = system: HL-60(TB); experiment: Cytotoxicity against Homo sapiens (human) HL-60(TB) cells after 48 hr by SRB assay; format: functional; conditions: HL-60, 48 h
# [14] = system: SN12C; experiment: Cytotoxicity against Homo sapiens (human) SN12C cells after 48 hr by SRB assay; format: functional
# [15] = Cytotoxicity against Homo sapiens (human) breast cancer cells assessed as cell growth at 10^-5 M after 48 hr by SRB assay relative to control; format: functional; conditions: Cancer cell lines, read-out: Activity
# [16] = system: PC-3; experiment: Cytotoxicity against Homo sapiens (human) PC3 cells after 48 hr by SRB assay; format: functional; conditions: PC-3, 48 h
# [17] = system: MOLT-4; experiment: Cytotoxicity against Homo sapiens (human) MOLT4 cells after 48 hr by SRB assay; format: functional; conditions: MOLT-4, 48 h
# [18] = system: UACC-62; experiment: Cytotoxicity against Homo sapiens (human) UACC62 cells after 48 hr by SRB assay; format: functional; conditions: UACC-62, 48 h
# [19] = system: SF-539; experiment: Cytotoxicity against Homo sapiens (human) SF539 cells after 48 hr by SRB assay; format: functional; conditions: SF-539, 48 h
# [20] = target: T1, Ubiquitin-like modifier-activating enzyme 1 (Homo sapiens) (UniProt P22314); experiment: Inhibition of ubiquitin displacement on His6-tagged E2 enzyme from His6-tagged UBA1 (unknown origin) at 10 uM after 1.5 hr by SDS-PAGE analysis
# T1 sequence (whole entry): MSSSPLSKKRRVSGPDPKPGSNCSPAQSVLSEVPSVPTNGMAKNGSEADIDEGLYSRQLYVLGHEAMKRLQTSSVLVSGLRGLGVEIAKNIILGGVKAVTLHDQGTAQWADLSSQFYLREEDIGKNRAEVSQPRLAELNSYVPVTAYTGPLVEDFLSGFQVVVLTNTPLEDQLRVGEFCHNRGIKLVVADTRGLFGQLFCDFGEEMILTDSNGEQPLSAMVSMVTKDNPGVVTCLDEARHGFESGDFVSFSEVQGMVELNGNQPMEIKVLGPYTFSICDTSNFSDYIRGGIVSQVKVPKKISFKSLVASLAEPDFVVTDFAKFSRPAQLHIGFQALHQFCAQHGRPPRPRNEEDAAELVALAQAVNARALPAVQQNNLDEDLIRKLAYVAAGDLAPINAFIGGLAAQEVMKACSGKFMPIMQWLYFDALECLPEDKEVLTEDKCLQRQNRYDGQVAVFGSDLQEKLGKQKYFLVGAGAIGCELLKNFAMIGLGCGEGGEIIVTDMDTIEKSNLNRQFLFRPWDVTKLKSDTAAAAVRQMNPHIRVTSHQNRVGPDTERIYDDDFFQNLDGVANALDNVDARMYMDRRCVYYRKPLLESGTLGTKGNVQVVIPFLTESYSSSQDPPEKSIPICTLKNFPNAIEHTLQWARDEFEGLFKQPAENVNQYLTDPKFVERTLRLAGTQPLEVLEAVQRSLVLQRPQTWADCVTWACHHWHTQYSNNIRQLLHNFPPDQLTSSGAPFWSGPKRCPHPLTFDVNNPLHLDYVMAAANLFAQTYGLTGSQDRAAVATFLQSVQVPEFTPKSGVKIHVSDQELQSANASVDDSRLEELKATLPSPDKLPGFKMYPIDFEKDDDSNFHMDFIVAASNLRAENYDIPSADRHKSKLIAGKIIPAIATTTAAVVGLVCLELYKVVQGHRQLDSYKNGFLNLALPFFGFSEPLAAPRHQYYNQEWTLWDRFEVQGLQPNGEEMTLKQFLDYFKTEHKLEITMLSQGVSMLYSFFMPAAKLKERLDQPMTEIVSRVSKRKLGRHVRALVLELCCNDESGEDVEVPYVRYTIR
# [21] = system: HCC 2998; experiment: Cytotoxicity against Homo sapiens (human) HCC2998 cells after 48 hr by SRB assay; format: functional; conditions: HCC 2998, 48 h
# [22] = system: T47D; experiment: Cytotoxicity against Homo sapiens (human) T47D cells after 48 hr by SRB assay; format: functional
# [23] = Cytotoxicity against Homo sapiens (human) colon cancer cells assessed as cell growth at 10^-5 M after 48 hr by SRB assay relative to control; format: functional; conditions: Cancer cell lines, read-out: Activity
# [24] = system: IGROV-1; experiment: Cytotoxicity against Homo sapiens (human) IGROV1 cells after 48 hr by SRB assay; format: functional; conditions: IGROV-1, 48 h
# [25] = system: OVCAR-8; experiment: Cytotoxicity against Homo sapiens (human) OVCAR8 cells after 48 hr by SRB assay; format: functional; conditions: OVCAR-8, 48 h
# [26] = system: NCI-H460; experiment: Cytotoxicity against Homo sapiens (human) NCI-H460 cells after 48 hr by SRB assay; format: functional; conditions: NCI-H460, 48 h
# [27] = system: RPMI-8226; experiment: Cytotoxicity against Homo sapiens (human) RPMI8226 cells after 48 hr by SRB assay; format: functional; conditions: RPMI-8226, 48 h
# [28] = system: NCI-H226; experiment: Cytotoxicity against Homo sapiens (human) NCI-H226 cells after 48 hr by SRB assay; format: functional; conditions: NCI-H226, 48 h
# [29] = system: MDA-MB-231; experiment: Cytotoxicity against Homo sapiens (human) MDA-MB-231 cells after 48 hr by SRB assay; format: functional; conditions: MDA-MB-231, 48 h
# [30] = system: NCI-H522; experiment: Cytotoxicity against Homo sapiens (human) NCI-H522 cells after 48 hr by SRB assay; format: functional; conditions: NCI-H522, 48 h
SMILES,GI50 [1] [µM],GI50 [2] [µM],GI50 [3] [µM],growth at 10 µM [4] [%],GI50 [5] [µM],GI50 [6] [µM],GI50 [7] [µM],GI50 [8] [µM],GI50 [9] [µM],GI50 [10] [µM],growth at 10 µM [11] [%],growth at 10 µM [12] [%],GI50 [13] [µM],GI50 [14] [µM],growth at 10 µM [15] [%],GI50 [16] [µM],GI50 [17] [µM],GI50 [18] [µM],GI50 [19] [µM],inhibition [20],further results
N#Cc1ccc(NC(=O)Nc2nc3ccc(OC(F)(F)F)cc3s2)cc1,2.63,1.23,2.75,-9.77,1.62,1.78,0.457,1,2.4,1.38,-6.18,8.95,2.45,1.58,-5.18,1.35,1.86,0.741,2.88,inactive,GI50 [21]: 1.29 µM; GI50 [22]: 0.427 µM; growth at 10 µM [23]: -11.2%; GI50 [24]: 2 µM; GI50 [25]: 2 µM; GI50 [26]: 0.603 µM; GI50 [27]: 1 µM; GI50 [28]: 2 µM; GI50 [29]: 0.933 µM; GI50 [30]: 0.427 µM
O=C(Nc1ccc(F)cc1)Nc1nc2ccc(OC(F)(F)F)cc2s1,2.57,4.07,3.8,12,2.95,3.09,2.34,2.14,4.37,3.02,5.63,12.9,3.02,2.57,19.2,2.82,3.09,3.55,2.24,inactive,GI50 [21]: 3.89 µM; GI50 [22]: 2.63 µM; growth at 10 µM [23]: 0.24%; GI50 [24]: 3.89 µM; GI50 [25]: 4.27 µM; GI50 [26]: 3.02 µM; GI50 [27]: 2.51 µM; GI50 [28]: 2.82 µM; GI50 [29]: 3.31 µM; GI50 [30]: 3.16 µM
